In PMC9228152, “New Amino Naphthoquinone Derivatives as Anti-Trypanosoma cruzi Agents Targeting Trypanothione Reductase” (Pharmaceutics, 2022):
Like-named read-outs stand apart in the source and are kept apart here. Each block holds one compound with its values, some of them ahead of it.

Legend:
[1] = system: T. cruzi trypomastigotes, INC-5 strain; assay: microbe, parasite or virus in culture; assay type: cell-based; conditions: Trypanosoma cruzi; bloodstream trypomastigotes, INC-5 strain; 24 h at 4 °C; read-out: Trypo INC-5 LC50 (half-maximal lytic concentration)
Procedure: (§1) Those compounds with the lowest IC50 values in the epimastigote studies of each strain were evaluated in trypomastigotes. For this purpose, bloodstream trypomastigotes of INC-5 and NINOA strains were used for peritoneal injection into 6−8-week-old CD1 mice. The peak of parasitemia was achieved after 4–6 weeks, at which time parasitised blood samples were obtained by cardiac puncture using sodium heparin as an anticoagulant and diluted to a concentration of 1 × 10^6 trypomastigotes/mL. 10 µL of each of the dilutions of the study compounds and Bzn, with these being placed in a 96-well plate, and 90 µL of infected blood was added, providing a final volume of 100 µL per well. The microplates were incubated at 4 °C for 24 h, and concentrations of 20 µM, 10 µM, and 5 µM of each compound were considered in these experiments. Each evaluation was performed in triplicate. Wells with untreated blood trypomastigotes were used as a negative lysis control and Bzn as a positive control. Then, the degree of lysis of trypomastigotes was determined by their reduction in number using an optical microscope according to the Brener–Pizzi method. For this purpose, 5 μL of blood was placed between a slide and a 13 × 13 coverslip. Mobile trypomastigotes were counted in 15 microscope fields at 40× magnification. Quantification of the degree of lysis for each case was expressed as a percentage considering the number of viable trypomastigotes with respect to the negative control. The half-maximal lytic concentration (LC50) was determined by linear regression. The experiments were carried out in accordance with the recommendations and approval of the local Ethics and Research Committee (Approval number: ENCB/CEI/078/2020).

[2] = system: T. cruzi trypomastigotes, NINOA strain; assay: microbe, parasite or virus in culture; assay type: cell-based; conditions: Trypanosoma cruzi; bloodstream trypomastigotes, NINOA strain; 24 h at 4 °C; read-out: Trypo NINOA LC50 (half-maximal lytic concentration)
Procedure: as §1

J774 murine macrophages = assay: Cytotoxicity on J774 macrophages (MTT); assay type: cell-based; conditions: J774 macrophages, MTT, 24 h, read-out: J774 IC50
Procedure: Cytotoxicity assays for the compounds selected for their trypanocidal activity were performed on J774 macrophage cells using the MTT method. For this purpose, 50,000 cells/well resuspended in RPMI medium and 2% foetal bovine serum were seeded in a 96-well plate and incubated for 24 h at 37 °C. […] After 24 h of incubation, the existing culture medium was replaced in the plate with fresh culture medium along with […] each of the compound dilutions (100 to 1.25 μM) and Bzn to a final volume of 100 µL per well. This plate was then incubated in 5% CO2 for 24 h at 37 °C. The controls used were cells with medium as a positive control and cells without culture medium as a negative control. After the 24 h incubation, the morphology of the macrophages was observed under a microscope and then the culture medium was removed again and the MTT solution (5 mg/mL) was added. After 1 h incubation at 37 °C, the absorbance at 570 nm was recorded on an Elisa Epoch reader. The following formula was used to calculate the % cytotoxicity: %cytotoxicity = (100 − (mean number of cells with treatment/cells without treatment) × 100).

[3] = system: T. cruzi epimastigotes, INC-5 strain; assay: Growth inhibition of T. cruzi epimastigotes, INC-5 strain; assay type: cell-based, Trypanosoma cruzi; conditions: epimastigotes, INC-5 strain, five days, means of three independent experiments, read-out: Epi INC-5 IC50
Procedure: (§2) Epimastigotes from T. cruzi strains NINOA and INC-5 were cultured in BHI (brain heart infusion broth, 89%) axenic medium, as reported in [26], at an initial concentration of 1 × 10^6 parasites/mL, at 28 °C, supplemented with 10% foetal bovine serum and 1% sodium penicillin-streptomycin. […] On the last day, the absorbance of the cultures was measured and related to the control. All measurements were carried out in triplicate. No toxic effect was attributable to DMSO. Since parasite growth is exponential, the data were analysed according to a first order equation, and the respective growth constant (k), corresponding to the slope, was calculated for controls and parasites treated with different drug concentrations. From these measurements, percentage growth inhibition (%GI) and half-maximal inhibitory concentration (IC50) values were calculated.

[4] = system: NINOA strain of T. cruzi trypomastigotes; design: method as in PMID 31709599; conditions: cited from earlier work
[5] = system: T. cruzi epimastigotes, NINOA strain; assay: Growth inhibition of T. cruzi epimastigotes, NINOA strain; assay type: cell-based; conditions: Trypanosoma cruzi, 120 h, epimastigotes, NINOA strain; five days; means of three independent experiments; read-out: Epi NINOA IC50
Procedure: as §2

J774 cells = system: J774 cells; design: method as in PMID 31709599; conditions: cited from earlier work
[6] = system: Y strain of T. cruzi epimastigote; design: method as in doi:10.1039/C5RA10122K; conditions: read-out: IC50 against Y strain of T. cruzi epimastigote; cited from earlier work
T. cruzi trypomastigotes = system: T. cruzi trypomastigotes; design: method as in PMID 30670432; conditions: cited from earlier work
recombinant TcTR = recombinant TcTR (Trypanosoma cruzi, UniProt P28593); assay: Trypanothione reductase inhibition assay (TS2-dependent NADPH oxidation); assay type: biochemical; conditions: for Ki: mixed-type inhibition, global nonlinear regression
Chain of recombinant TcTR (P28593 whole entry): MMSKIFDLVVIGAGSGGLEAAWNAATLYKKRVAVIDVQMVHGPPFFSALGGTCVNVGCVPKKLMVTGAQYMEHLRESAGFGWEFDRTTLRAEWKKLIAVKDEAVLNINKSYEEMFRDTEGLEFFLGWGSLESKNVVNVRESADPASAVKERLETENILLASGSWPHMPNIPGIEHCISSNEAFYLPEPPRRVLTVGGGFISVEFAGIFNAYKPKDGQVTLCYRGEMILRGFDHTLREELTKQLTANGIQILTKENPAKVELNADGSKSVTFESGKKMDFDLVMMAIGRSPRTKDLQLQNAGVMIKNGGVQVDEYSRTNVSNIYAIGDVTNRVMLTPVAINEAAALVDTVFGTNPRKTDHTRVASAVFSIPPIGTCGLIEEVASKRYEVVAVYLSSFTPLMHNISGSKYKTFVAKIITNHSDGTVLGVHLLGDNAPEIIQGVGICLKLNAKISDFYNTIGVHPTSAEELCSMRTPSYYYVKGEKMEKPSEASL
Procedure: The inhibition of TcTR activity by 7j was evaluated by monitoring the trypanothione disulphide (TS2)-dependent NADPH oxidation by using the assay described before. The reaction mixture contained assay buffer (40 mM HEPES pH 7.4, 1 mM EDTA), recombinant TcTR (88-168 ng/mL), NADPH (the concentration depended on experiment), and different 7j concentrations when required, in a volume of 500 μL. The mixture was incubated at 37 °C for 3 min, and TS2 was added to start the reaction. The absorbance at 340 nm was recorded in real time for 10 min, and the activity was calculated from the slope of the curves as μmol of NADPH oxidised per min (e^340 = 6.22 mM^−1 cm^−1).

[7] = system: epimastigotes of the Tulahuén strain; design: method as in PMID 25127463; conditions: read-out: IC50 against epimastigotes of the Tulahuén strain; cited from earlier work
[8] = system: trypomastigote cultures (Y strain); design: method as in PMID 28215783; conditions: cited from earlier work
[9] = alpha of the mixed-type inhibitor equation, replots of slope and 1/v axis intercept vs. 7j

- IC50 ([3]; Trypanosoma cruzi, 120 h): 42.3 ± 5.8 µM
- IC50 [5]: 8.21 ± 1.8 µM
SMILES: O=C(Cn1ccnc1[N+](=O)[O-])NCc1ccccc1 [Bzn, benznidazole, reference compound]
- LC50 [1]: 85.6 ± 4.23 µM
- LC50 [2]: > 100 µM
- IC50 (J774 murine macrophages; Mus musculus, J774, 24 h): 352 µM
- IC50 [4]: 40.7 µM
- IC50 (J774 cells): 352 µM

SMILES: O=C1C=C(Oc2cccc([N+](=O)[O-])c2)C(=O)c2ccccc21 [II, 2-(3-nitrophenoxy)-1,4-naphthoquinone]
- IC50 [6]: 0.02 µM

SMILES: Cc1ccc(OC2=C(Cl)C(=O)c3ccccc3C2=O)cc1[N+](=O)[O-] [III]
- IC50 [4]: 9.38 µM
- IC50 (J774 cells): 117 µM

SMILES: O=C(Nc1nc(-c2ccccc2)c[nH]1)N1CCN(c2ccc(C(F)(F)F)cc2[N+](=O)[O-])CC1 [VI]
- IC50 (T. cruzi trypomastigotes): 2.2 µM

- α NADPH (recombinant TcTR; [9]): 1.12
- α TS2 (recombinant TcTR; [9]): 0.77
- Ki (recombinant TcTR; NADPH varied, TS2 fixed 200 µM, read-out: Ki 7j vs. NADPH): 18 ± 3.5 µM
- Ki (recombinant TcTR; TS2 varied, NADPH fixed 160 µM, read-out: Ki 7j vs. TS2): 28 ± 4.5 µM
- Type of enzyme inhibition (recombinant TcTR; with respect to both substrates, TS2 and NADPH, Lineweaver-Burk plots): simple mixed-type inhibitor
- IC50 ([3]; Trypanosoma cruzi, 120 h): < 1 µM
- IC50 [3]: 0.92 ± 0.01 µM
SMILES: O=C1C(Cl)=C(N2CCC(NC(=O)c3cccc4ccccc34)CC2)C(=O)c2ccccc21 [Compound 7j, N-(1-(3-chloro-1,4-dioxo-1,4-dihydronaphthalen-2-yl)piperidin-4-yl)-1-naphthamide]
- LC50 [1]: 59.7 ± 3.72 µM
- LC50 [2]: 98.1 ± 8.9 µM
- IC50 (J774 murine macrophages): 33 µM
- IC50 (J774 murine macrophages; Mus musculus, J774, 24 h): ~25 µM

SMILES: CCCCCCOc1ccc(NC2=CC(=O)c3ccccc3C2=O)cc1 [I]
- IC50 [7]: 1.72 µM

SMILES: Clc1ccc2nccc(NCCN3CCOCC3)c2c1 [V]
- IC50 [8]: 67.7 µM
